From US11414431B2, “Substituted pyrazolo[1,5-a]pyrimidines as TYK2 inhibitors” (Nimbus Lakshmi, Inc., priority 2018, dated 2022) come the findings set out here.

The test system of one assay is IL-12 induced STAT4 phosphorlyation mediated by TYK2/JAK2. The assay can be described thus: IL-12 Induced pSTAT4 in Human PBMC. In kind it is cell-based. The conditions noted are these: 1.7 ng/mL IL-12 for 30 minutes. The essentials:
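Thawed human PBMC pre-incubated with compound 1 hr at 37° C (0.1% DMSO final), then stimulated 30 minutes with IL-12 at 1.7 ng/mL final. pSTAT4 and total STAT4 measured in cell lysates with MSD reagents.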
Regarding `CNc1cc(-c2cnc3n([C@@H]4COC[C@H]4OC)cccc2-3)nc2c(C(=O)N[C@@H]3CC[C@H]3OC)cnn12` [Compound I-884], the IC50 – broadly, the midpoint of a concentration-inhibition curve – was less than 0.1 µM.
On the same count and under the same terms, with `CNc1cc(Nc2cccn([C@H]3CCCC[C@H]3O)c2=O)nc2c(C(=O)N[C@@H]3CC[C@H]3F)cnn12` [Compound I-214] the figure was less than 0.1 µM; with `CNc1cc(-c2cn(C3COC3)c3ncccc23)nc2c(C(=O)N[C@H]3CC[C@H]3O)cnn12` [Compound I-555], less than 0.1 µM; with `CNc1cc(-c2cnc3n([C@H]4CCOC[C@H]4F)cccc2-3)nc2c(C(=O)NC3CC[C@H]3O)cnn12` (stereo partly shown) [Compound I-942], 0.5 to 1 µM.
For the compound `CNc1cc(-c2cn([C@H]3CC3(F)F)c3ncccc23)nc2c(C(=O)NC3COC[C@H]3O)cnn12` (stereo partly shown) [Compound I-709], the half-maximal inhibitory concentration (IC50) lay in the range of 0.1 to 0.5 µM.
Same read-out and setting: with `CNc1cc(Nc2cccn([C@H]3C[C@H](F)C3)c2=O)nc2c(C(=O)N[C@H]3CC[C@H]3O)cnn12` [Compound I-16, 5-((1-((1r,3S)-3-Fluorocyclobutyl)-2-oxo-1,2-dihydropyridin-3-yl)amino)-N-((1S,2R)-2-hydroxycyclobutyl)-7-(methylamino)pyrazolo[1,5-a]pyrimidine-3-carboxamide] the figure was less than 0.1 µM; with `CNc1cc(Nc2cccn([C@H]3[C@@H]4COC[C@@H]43)c2=O)nc2c(C(=O)NC3CC[C@H]3F)cnn12` (stereo partly shown) [Compound I-203], less than 0.1 µM; with `CNc1ccc(-c2cc(NC)n3ncc(C(=O)N[C@H]4CC[C@H]4O)c3n2)n2ccnc12` [Compound I-485], less than 0.1 µM.
On the same count and under the same terms, with `CNc1cc(-c2cn([C@H]3COC[C@@H]3O)c3ncccc23)nc2c(C(=O)NC3CCC3(F)F)cnn12` (stereo partly shown) [Compound I-695] the figure was less than 0.1 µM; with `CNc1cc(-c2cn([C@H]3CCN(C)C3)c3ncccc23)nc2c(C(=O)NC3CC[C@@H]3OC)cnn12` (stereo partly shown) [Compound I-618], less than 0.1 µM; with `CNc1cc(Nc2cccn(-c3ccccn3)c2=O)nc2c(C(=O)NC3CCC3(F)F)cnn12` (stereo not shown) [Compound I-318], less than 0.1 µM.
Still for that read-out and setting: with `CNc1cc(Nc2cccn([C@H]3CC[C@H]3O)c2=O)nc2c(C(=O)NC3CC[C@@H]3F)cnn12` (stereo partly shown) [Compound I-167] the figure was less than 0.1 µM; with `CNc1cc(Nc2cccn([C@H]3C[C@H](F)C3)c2=O)nc2c(C(=O)N[C@@H]3CCC3(F)F)cnn12` [Compound I-285], less than 0.1 µM; with `CNc1cc(-c2cnc3n([C@H]4COC[C@@H]4O)cccc2-3)nc2c(C(=O)NC3CCC3(F)F)cnn12` (stereo partly shown) [Compound I-898], less than 0.1 µM.
As to `CNc1cc(-c2cn([C@@H]3CC3(F)F)c3ncccc23)nc2c(C(=O)N[C@H]3CC[C@H]3O)cnn12` [Compound I-549], the IC50 is less than 0.1 µM.
Still for that read-out and setting: in the case of `CNc1cc(-c2cnc3n([C@@H]4COC[C@H]4O)cccc2-3)nc2c(C(=O)NC3CCC3(F)F)cnn12` (stereo partly shown) [Compound I-901] it was less than 0.1 µM; in that of `CNc1cc(Nc2cccn([C@H]3[C@@H]4COC[C@@H]43)c2=O)nc2c(C(=O)N[C@H]3CC[C@H]3F)cnn12` [Compound I-204], less than 0.1 µM.
On the same count and under the same terms, with `CNc1cc(-c2cn([C@H]3CC(=O)N(C)C3)c3ncccc23)nc2c(C(=O)N[C@H]3CC[C@@H]3OC)cnn12` [Compound I-1024] the figure was less than 0.1 µM; with `CNc1cc(-c2cn([C@@H]3CCOC3)c3ncccc23)nc2c(C(=O)NC3CC[C@@H]3OC)cnn12` (stereo partly shown) [Compound I-609], less than 0.1 µM.
Still for that read-out and setting: in the case of `CNc1cc(Nc2cccn([C@H]3[C@@H]4COC[C@@H]43)c2=O)nc2c(C(=O)N[C@@H]3CC[C@H]3OC)cnn12` [Compound I-262] it was less than 0.1 µM; in that of `CNc1cc(Nc2cccn([C@@H]3CCCC[C@@H]3O)c2=O)nc2c(C(=O)NC3CC[C@@H]3F)cnn12` (stereo partly shown) [Compound I-209], less than 0.1 µM.
Compound `CNc1cc(Nc2cccn([C@H]3CC[C@H]3O)c2=O)nc2c(C(=O)N[C@H]3CCC3(F)F)cnn12` [Compound I-287] had an IC50 of less than 0.1 µM.
Take `CNc1cc(-c2cn([C@@H]3CCOC3)c3ncccc23)nc2c(C(=O)N[C@H]3CC[C@@H]3OC)cnn12` [Compound I-610]: the IC50 was less than 0.1 µM.
On the same count and under the same terms, in the case of `CNc1cc(-c2cn([C@H]3COC[C@@H]3O)c3ncccc23)nc2c(C(=O)NC3CC[C@@H]3OC)cnn12` (stereo partly shown) [Compound I-630] it was 0.1 to 0.5 µM; in that of `CNc1cc(Nc2cccn([C@H]3C[C@H](F)C3)c2=O)nc2c(C(=O)NC3CC[C@@H]3F)cnn12` (stereo partly shown) [Compound I-164], less than 0.1 µM.
Compound `CNc1cc(Nc2cccn([C@H]3CC[C@@H]3O)c2=O)nc2c(C(=O)N[C@@H]3CC[C@@]3(C)OC)cnn12` [Compound I-377] came in with an IC50 of less than 0.1 µM.
On the same count and under the same terms, in the case of `CNc1cc(-c2cn([C@H]3COC[C@@H]3OC)c3ncccc23)nc2c(C(=O)NC3CC[C@@H]3OC)cnn12` (stereo partly shown) [Compound I-633] it was less than 0.1 µM; in that of `CNc1cc(-c2cn([C@H]3C[C@@H](COC)C3)c3ncccc23)nc2c(C(=O)N[C@@H]3CC[C@@H]3O)cnn12` [Compound I-914], less than 0.1 µM.
Compound `CNc1cc(Nc2cccn(C(C)C)c2=O)nc2c(C(=O)N[C@@H]3CC[C@H]3F)cnn12` [Compound I-147] came in with an IC50 of less than 0.1 µM.
Still for that read-out and setting: in the case of `CNc1cc(Nc2cccn([C@H]3C[C@@H](OC)C3)c2=O)nc2c(C(=O)N[C@H]3CC[C@@H]3F)cnn12` [Compound I-174] it was less than 0.1 µM; in that of `CNc1cc(Nc2cccn(C3COC3)c2=O)nc2c(C(=O)NC3CCC3(F)F)cnn12` (stereo not shown) [Compound I-280], less than 0.1 µM.
The same measure, in the same setting: with `CNc1cc(Nc2cccn([C@H]3[C@@H]4COC[C@@H]43)c2=O)nc2c(C(=O)N[C@@H]3C[C@H]3OC)cnn12` [Compound I-25, 5-((1-((1R,5S,6r)-3-Oxabicyclo[3.1.0]hexan-6-yl)-2-oxo-1,2-dihydropyridin-3-yl)amino)-N-((1R,2R)-2-methoxycyclopropyl)-7-(methylamino)pyrazolo[1,5-a]pyrimidine-3-carboxamide] the figure was less than 0.1 µM; with `CNc1cc(-c2cn([C@H]3CCN(C)C3)c3ncccc23)nc2c(C(=O)N[C@H]3CC[C@@H]3OC)cnn12` [Compound I-619], less than 0.1 µM; with `CNc1cc(Nc2cccn(C3CCOCC3)c2=O)nc2c(C(=O)NC3CC[C@@]3(C)OC)cnn12` (stereo partly shown) [Compound I-405], less than 0.1 µM.
Same read-out and setting: with `CNc1cc(Nc2cccn([C@H]3C[C@@H](OC)C3)c2=O)nc2c(C(=O)NC3CC[C@@H]3F)cnn12` (mixture of isomers) [Compound I-173] the figure was less than 0.1 µM.
Turning to `CNc1cc(-c2cn([C@H]3COC[C@@H]3OC)c3ccccc23)nc2c(C(=O)N[C@H]3CC[C@@H]3OC)cnn12` [Compound I-742], the IC50 was less than 0.1 µM.
The same measure, in the same setting: in the case of `CNc1cc(-c2cn(C3CN(C)C3)c3ncccc23)nc2c(C(=O)NC3CC[C@@H]3F)cnn12` (stereo partly shown) [Compound I-513] it was less than 0.1 µM.
Still for that read-out and setting: in the case of `CNc1cc(-c2cn([C@H]3COC[C@H]3F)c3ncccc23)nc2c(C(=O)N[C@H]3CC[C@@H]3OC)cnn12` [Compound I-625] it was less than 0.1 µM; in that of `CNc1cc(Nc2cccn([C@H]3[C@@H]4COC[C@@H]43)c2=O)nc2c(C(=O)N[C@@H]3CC[C@@]3(C)OC)cnn12` [Compound I-410], less than 0.1 µM.
On the same count and under the same terms, with `CNc1cc(Nc2cccn([C@@H]3CC[C@H]3OC)c2=O)nc2c(C(=O)N[C@H]3CC[C@H]3O)cnn12` [Compound I-243] the figure was less than 0.1 µM.
In the case of `CNc1cc(Nc2cccn(C3CCN(CCF)CC3)c2=O)nc2c(C(=O)NC3CC[C@@H]3F)cnn12` (stereo partly shown) [Compound I-236], the IC50 was less than 0.1 µM.
Take `CNc1cc(Nc2cccn([C@@H]3CCOC[C@@H]3OC)c2=O)nc2c(C(=O)N[C@@H]3CC[C@@H]3F)cnn12` [Compound I-235]: the IC50 is less than 0.1 µM.
For the compound `CNc1cc(-c2cn([C@@H]3COC[C@H]3OC)c3ncccc23)nc2c(C(=O)NC3CC[C@H]3F)cnn12` (stereo partly shown) [Compound I-531], the IC50 is less than 0.1 µM.
Still for that read-out and setting: with `CO[C@@H]1CC[C@H]1NC(=O)c1cnn2c3c(c(Nc4cccn(C(C)C)c4=O)nc12)OCCN3` [Compound I-760] the figure was less than 0.1 µM; with `CNc1cc(Nc2cccn([C@@H]3CC[C@@H]3O)c2=O)nc2c(C(=O)N[C@H]3CCC3(F)F)cnn12` [Compound I-290], less than 0.1 µM.
Still for that read-out and setting: with `CNc1cc(-c2cn([C@H]3CCOC[C@H]3OC)c3ncccc23)nc2c(C(=O)N[C@H]3CC[C@@H]3F)cnn12` [Compound I-796] the figure was less than 0.1 µM; with `CNc1cc(-c2cn(C3CCCC3)c3ncccc23)nc2c(C(=O)N[C@@H]3CCC3(F)F)cnn12` [Compound I-681], less than 0.1 µM.
The same measure, in the same setting: with `CNc1cc(Nc2cccn([C@H]3CCC[C@@H](C#N)C3)c2=O)nc2c(C(=O)N[C@@H]3CC[C@H]3OC)cnn12` [Compound I-258] the figure was less than 0.1 µM; with `CNc1cc(-c2cnc3n([C@H]4COC[C@@H]4O)cccc2-3)nc2c(C(=O)N[C@H]3CC[C@@H]3F)cnn12` [Compound I-828], less than 0.1 µM.

Still in this assay, the particulars now being: 0.5 h, 1.7 ng/mL IL-12 for 30 minutes.
In turn, `CNc1cc(-c2cn([C@H]3CO[C@@H](COC)C3)c3ncccc23)nc2c(C(=O)N[C@H]3CC[C@@H]3OC)cnn12` [Compound I-1018, N-((1S,2S)-2-methoxycyclobutyl)-5-(1-(5-(methoxymethyl)tetrahydrofuran-3-yl)-1H-pyrrolo[2,3-b]pyridin-3-yl)-7-(methylamino)pyrazolo[1,5-a]pyrimidine-3-carboxamide] registered an IC50 of less than 0.1 µM.
On the same count and under the same terms, in the case of `CNc1cc(Nc2cccn([C@H]3CCC[C@@H](C#N)C3)c2=O)nc2c(C(=O)NC3CC[C@@H]3OC)cnn12` (stereo partly drawn) [Compound I-114, 5-((1-((1S,3R)-3-Cyanocyclohexyl)-2-oxo-1,2-dihydropyridin-3-yl)amino)-N-((trans-1,2)-2-methoxycyclobutyl)-7-(methylamino)pyrazolo[1,5-a]pyrimidine-3-carboxamide] it was less than 0.1 µM; in that of `CNc1cc(-c2cnc3n([C@H]4CCOC4)cccc2-3)nc2c(C(=O)NC3CC[C@@H]3OC)cnn12` (stereo partly drawn) [Compound I-994, N-(2-methoxycyclobutyl)-7-(methylamino)-5-(7-((S)-tetrahydrofuran-3-yl)-7H-pyrrolo[2,3-b]pyridin-3-yl)pyrazolo[1,5-a]pyrimidine-3-carboxamide], less than 0.1 µM.
